This note sets out measurements from patent publication US20240368150A1 (Hoffmann-La Roche Inc., priority 2021, published 2024).

SMILES strings stand for the structures. Structures can show the parent of a compound that is named as a salt. Where two headings read alike, the source gives them in different places. A value given as a limit tells only on which side of the number the result lay.

The test system of assay [1] is primary human T-cells. As to the kind of experiment: Proliferation assay after 5 days (CellTiter-Glo, CD3 stimulation; PBS counter screen). The format is cell-based. Particulars: T-cell, 120 h, CD3 stimulation; for Emax: 5 days, normalized to reference compound A1 as stimulator control = 100%, DMSO neutral control, read-out: Emax proliferation (% activation); for EC50: primary human T-cells, CellTiter-Glo after 5 days, EC50 of fitted sigmoidal curve, read-out: Tcell Proliferation CD3 EC50. Summed up: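 ATP-based luminescence (CellTiter-Glo 2.0, room temperature) measured proliferation 5 days after compound addition to CD3-stimulated or unstimulated primary human T-cells. Flags marked compounds that lowered viability or activated unstimulated cells.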
On the technique in general: In ATP-based viability assays light output follows the ATP content of the culture.

Assay [2] concerns primary human T-cells.

Take `CC1(c2nnc(-c3cc4c(cc3F)S(=O)(=O)C[C@H](N)C(=O)N4Cc3ccc(Cl)cc3)o2)CNC1` [Example 102, (3R)-3-amino-5-[(4-chlorophenyl)methyl]-8-fluoro-7-[5-(3-methylazetidin-3-yl)-1,3,4-oxadiazol-2-yl]-1,1-dioxo-2,3-dihydro-1λ^6,5-benzothiazepin-4-one]: in the assay on primary human T-cells [1] (Homo sapiens), the Emax came to 65% and the EC50 was found to be 7.69 µM. Further, the EC50 in the assay with primary human T-cells [2] is above 10000 nM.

For the molecule `CN(CCO)CC(C)(C)c1nnc(-c2cc3c(cc2F)S(=O)(=O)C[C@H](N)C(=O)N3Cc2ccc(Cl)cc2)o1` [Example 139, (3R)-3-amino-5-[(4-chlorophenyl)methyl]-8-fluoro-7-[5-[2-[2-hydroxyethyl(methyl)amino]-1,1-dimethyl-ethyl]-1,3,4-oxadiazol-2-yl]-1,1-dioxo-2,3-dihydro-1λ^6,5-benzothiazepin-4-one], the Emax with primary human T-cells [1] (Homo sapiens) was found to be 102%. In addition, the EC50 in the assay with primary human T-cells [1] (Homo sapiens) worked out at 3.4 µM; in the assay with primary human T-cells [2], 4000 nM.

In the case of `CC(C)(c1nnc(-c2cc3c(cc2F)S(=O)(=O)C[C@H](N)C(=O)N3Cc2ccc(Cl)cc2)o1)N1CCCC1` [Example 128, (3R)-3-amino-5-[(4-chlorophenyl)methyl]-8-fluoro-7-[5-(1-methyl-1-pyrrolidin-1-yl-ethyl)-1,3,4-oxadiazol-2-yl]-1,1-dioxo-2,3-dihydro-1λ^6,5-benzothiazepin-4-one], in the assay with primary human T-cells [1] (Homo sapiens), the Emax amounted to 99% and the EC50 is 0.534 µM. This molecule also came in with an EC50 in the assay on primary human T-cells [2] of 1240 nM.

Take `CC(C)(C)c1nnc(-c2cc3c(cc2F)S(=O)(=O)C[C@H](N)C(=O)N3Cc2cncc(Cc3ccc(Cl)cc3)c2)o1` [Example 252, (3R)-3-amino-7-(5-tert-butyl-1,3,4-oxadiazol-2-yl)-5-[[5-[(4-chlorophenyl)methyl]-3-pyridyl]methyl]-8-fluoro-1,1-dioxo-2,3-dihydro-1λ^6,5-benzothiazepin-4-one]: in the assay with primary human T-cells [1] (Homo sapiens), the Emax was 72% and the EC50 is 4.82 µM. The molecule also had an EC50 in the assay with primary human T-cells [2] of 1160 nM.

Consider `N[C@H]1CS(=O)(=O)c2ccc(-c3nnc(C(F)(F)C(F)(F)F)o3)cc2N(Cc2ccc(Cl)cc2)C1=O` [Example 363, (3R)-3-amino-5-[(4-chlorophenyl)methyl]-1,1-dioxo-7-[5-(1,1,2,2,2-pentafluoroethyl)-1,3,4-oxadiazol-2-yl]-2,3-dihydro-1λ^6,5-benzothiazepin-4-one], for which, in the assay with primary human T-cells [1] (Homo sapiens), the Emax was found to be 50%. For the same molecule, the EC50 is above 10 µM with primary human T-cells [1] and 2170 nM in the assay on primary human T-cells [2].

In the case of `C#CCC(C)(C)c1nnc(-c2cc3c(cc2F)S(=O)(=O)C[C@H](N)C(=O)N3Cc2ccc(C3(C(F)(F)F)N=N3)cc2)o1` [Example 359, (3R)-3-amino-7-[5-(1,1-dimethylbut-3-ynyl)-1,3,4-oxadiazol-2-yl]-8-fluoro-1,1-dioxo-5-[[4-[3-(trifluoromethyl)diazirin-3-yl]phenyl]methyl]-2,3-dihydro-1λ^6,5-benzothiazepin-4-one], in the assay with primary human T-cells [1] (Homo sapiens), the Emax was found to be 115% and the EC50 turned out to be 0.0817 µM. In addition, the EC50 in the assay with primary human T-cells [2] worked out at 208 nM.

As for `CC(C)(C)c1nc(-c2cc3c(cc2F)S(=O)(=O)C[C@H](N)C(=O)N3Cc2ccc(OCC3CCOCC3)cc2)no1` [Example 353, (3R)-3-amino-7-(5-tert-butyl-1,2,4-oxadiazol-3-yl)-8-fluoro-1,1-dioxo-5-[[4-(tetrahydropyran-4-ylmethoxy)phenyl]methyl]-2,3-dihydro-1λ^6,5-benzothiazepin-4-one], the Emax with primary human T-cells [1] (Homo sapiens) is 108%. Further, the EC50 in the assay with primary human T-cells [1] (Homo sapiens) was 7.24 µM; with primary human T-cells [2] it was 3250 nM.

As to `CC(C)(C)c1nnc(-c2ccc3c(c2)N(Cc2ccc(S(=O)(=O)C(F)(F)F)cc2)C(=O)[C@@H](N)CS3(=O)=O)o1` [Example 123, (3R)-3-amino-7-(5-tert-butyl-1,3,4-oxadiazol-2-yl)-1,1-dioxo-5-[[4-(trifluoromethylsulfonyl)phenyl]methyl]-2,3-dihydro-1λ^6,5-benzothiazepin-4-one], in the assay with primary human T-cells [1] (Homo sapiens), the Emax was found to be 82% and the EC50 was above 2.73 µM. Besides, the EC50 in the assay with primary human T-cells [2] worked out at 1650 nM.

Regarding `N[C@H]1CS(=O)(=O)c2cc(F)c(-c3nnc(N4CCC5(CC4)CC(F)(F)CN5)o3)cc2N(Cc2ccc(Cl)cc2)C1=O` [Example 475, (3R)-3-amino-5-[(4-chlorophenyl)methyl]-7-[5-(3,3-difluoro-1,8-diazaspiro[4.5]decan-8-yl)-1,3,4-oxadiazol-2-yl]-8-fluoro-1,1-dioxo-2,3-dihydro-1λ^6,5-benzothiazepin-4-one; hydrochloride], in the assay with primary human T-cells [1] (Homo sapiens), the Emax was determined as 85% and the EC50 turned out to be 0.941 µM. In the assay with primary human T-cells [2], this molecule returned an EC50 of 4240 nM.

`CC1(c2nnc(-c3ccc4c(c3)N(Cc3ccc(Cl)cc3)C(=O)[C@@H](N)CS4(=O)=O)o2)CCN(C(=O)OCC(F)(F)F)CC1` [Example 382, 2,2,2-trifluoroethyl 4-[5-[(3R)-3-amino-5-[(4-chlorophenyl)methyl]-1,1,4-trioxo-2,3-dihydro-1λ^6,5-benzothiazepin-7-yl]-1,3,4-oxadiazol-2-yl]-4-methyl-piperidine-1-carboxylate]: in the assay on primary human T-cells [1] (Homo sapiens), the Emax worked out at 100% and the EC50 was found to be 0.893 µM. In the assay on primary human T-cells [2], the EC50 is 1680 nM.

Turning to `CCc1coc(-c2cc3c(cc2F)S(=O)(=O)C[C@H](N)C(=O)N3Cc2ccc(Cl)cc2)n1` [Example 216, (3R)-3-amino-5-[(4-chlorophenyl)methyl]-7-(4-ethyloxazol-2-yl)-8-fluoro-1,1-dioxo-2,3-dihydro-1λ^6,5-benzothiazepin-4-one], in the assay with primary human T-cells [1] (Homo sapiens), the Emax amounted to 41%. Moreover, the figures for the EC50 in the assay on primary human T-cells [1] (Homo sapiens) and with primary human T-cells [2] were above 20 µM and 16400 nM, respectively.

In the case of `CC(C)(C)c1nnc(-c2cc3c(cc2F)S(=O)(=O)C[C@H](N)C(=O)N3Cc2cnc(C3CC3)nc2)o1` [Example 238, (3R)-3-amino-7-(5-tert-butyl-1,3,4-oxadiazol-2-yl)-5-[(2-cyclopropylpyrimidin-5-yl)methyl]-8-fluoro-1,1-dioxo-2,3-dihydro-1λ^6,5-benzothiazepin-4-one], in the assay with primary human T-cells [1] (Homo sapiens), the Emax came out at 102% and the EC50 stood at 3.07 µM. In the assay on primary human T-cells [2], this molecule displayed an EC50 of 769 nM.

On to `CN(C)c1cc2c(cc1-c1nnc(C(C)(C)C)o1)N(Cc1ccc(Cl)cc1)C(=O)[C@@H](N)CS2(=O)=O` [Example 274, (3R)-3-amino-7-(5-tert-butyl-1,3,4-oxadiazol-2-yl)-5-[(4-chlorophenyl)methyl]-8-(dimethylamino)-1,1-dioxo-2,3-dihydro-1λ^6,5-benzothiazepin-4-one], for which, in the assay on primary human T-cells [1] (Homo sapiens), the Emax was determined as 10% and the EC50 was above 20 µM. Besides, the EC50 with primary human T-cells [2] is above 20000 nM.

As for `CN1CCC(F)(F)C(c2nnc(-c3cc4c(cc3F)S(=O)(=O)C[C@H](N)C(=O)N4Cc3ccc(Cl)cc3)o2)C1` (stereo partly drawn) [Example 158, (3R)-3-amino-5-[(4-chlorophenyl)methyl]-7-[5-(4,4-difluoro-1-methyl-3-piperidyl)-1,3,4-oxadiazol-2-yl]-8-fluoro-1,1-dioxo-2,3-dihydro-1λ^6,5-benzothiazepin-4-one], the Emax in the assay on primary human T-cells [1] (Homo sapiens) was 141%. For the same molecule, the EC50 in the assay with primary human T-cells [1] (Homo sapiens) is 2.42 µM; in the assay on primary human T-cells [2], 194 nM.

Turning to `CC(C)(C)c1nnc(-c2cc3c(cc2F)S(=O)(=O)C[C@H](N)C(=O)N3Cc2ccc(Cl)cc2)s1` [Example 508, (3R)-3-amino-7-(5-tert-butyl-1,3,4-thiadiazol-2-yl)-5-[(4-chlorophenyl)methyl]-8-fluoro-1,1-dioxo-2,3-dihydro-1λ^6,5-benzothiazepin-4-one], in the assay with primary human T-cells [1] (Homo sapiens), the Emax was determined as 110%. Further, the figures for the EC50 with primary human T-cells [1] (Homo sapiens) and in the assay with primary human T-cells [2] were 0.396 µM and 459 nM, respectively.

Consider `CS(=O)(=O)CCc1nnc(-c2cc3c(cc2F)S(=O)(=O)C[C@H](N)C(=O)N3Cc2ccc(Cl)cc2)o1` [Example 95, (3R)-3-amino-5-[(4-chlorophenyl)methyl]-8-fluoro-7-[5-(2-methylsulfonylethyl)-1,3,4-oxadiazol-2-yl]-1,1-dioxo-2,3-dihydro-1λ^6,5-benzothiazepin-4-one], for which, in the assay on primary human T-cells [1] (Homo sapiens), the Emax came out at 67% and the EC50 is 6.16 µM. In addition, the EC50 with primary human T-cells [2] was determined as 5360 nM.

Consider `N[C@H]1CS(=O)(=O)c2cc(F)c(-c3nnc(C(=O)N4CCC(F)(F)C4)o3)cc2N(Cc2ccc(Cl)cc2)C1=O` [Example 117, (3R)-3-amino-5-[(4-chlorophenyl)methyl]-7-[5-(3,3-difluoropyrrolidine-1-carbonyl)-1,3,4-oxadiazol-2-yl]-8-fluoro-1,1-dioxo-2,3-dihydro-1λ^6,5-benzothiazepin-4-one], for which, in the assay with primary human T-cells [1] (Homo sapiens), the Emax came out at 68% and the EC50 amounted to 5.02 µM. The molecule further had an EC50 with primary human T-cells [2] of 3570 nM.

For the molecule `N[C@H]1CS(=O)(=O)c2ccc(-c3nnc(N4CC5(C4)CC(F)(F)C5)o3)cc2N(Cc2ccc(Cl)cc2)C1=O` [Example 402, (3R)-3-amino-5-[(4-chlorophenyl)methyl]-7-[5-(6,6-difluoro-2-azaspiro[3.3]heptan-2-yl)-1,3,4-oxadiazol-2-yl]-1,1-dioxo-2,3-dihydro-1λ^6,5-benzothiazepin-4-one], the Emax with primary human T-cells [1] (Homo sapiens) came out at 93%. Further, the EC50 with primary human T-cells [1] (Homo sapiens) came out at 0.928 µM; in the assay with primary human T-cells [2], 1640 nM.

`CC(=O)N1CC2CC2(c2nnc(-c3cc4c(cc3F)S(=O)(=O)C[C@H](N)C(=O)N4Cc3ccc(Cl)cc3)o2)C1` (stereo partly drawn) [Example 182, (3R)-7-[5-(3-acetyl-3-azabicyclo[3.1.0]hexan-1-yl)-1,3,4-oxadiazol-2-yl]-3-amino-5-[(4-chlorophenyl)methyl]-8-fluoro-1,1-dioxo-2,3-dihydro-1λ^6,5-benzothiazepin-4-one]: in the assay on primary human T-cells [1] (Homo sapiens), the Emax amounted to 38% and the EC50 is above 10 µM. In the assay with primary human T-cells [2], this molecule registered an EC50 of 1590 nM.

`CC(C)(C)n1nc(-c2cc3c(cc2F)S(=O)(=O)C[C@H](N)C(=O)N3Cc2ccc(Cl)cc2)oc1=O` [Example 510, 3-tert-butyl-5-[(3R)-3-amino-5-[(4-chlorophenyl)methyl]-8-fluoro-1,1,4-trioxo-2,3-dihydro-1λ^6,5-benzothiazepin-7-yl]-1,3,4-oxadiazol-2-one]: in the assay on primary human T-cells [1] (Homo sapiens), the Emax amounted to 129% and the EC50 was 0.403 µM. This molecule also displayed an EC50 in the assay with primary human T-cells [2] of 91.7 nM.
